US9326973B2, “Hepatitis C virus inhibitors” (priority 2012, dated 2016)

Tested on: HCV replicon, genotype-1a variant with glutamine 30 changed to glutamate in the NS5A protein
Assay: microbe, parasite or virus in culture
Type: cell-based, HCV genotype 1a
Details: HCV replicon genotype 1a Q30E (Q→E) variant; test compound titrated with an NS5A-targeting compound (BMS-790052 fixed at 200 nM); ranking of synergist activity
Procedure, shortened: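 Synergy was assessed by combining several fixed amounts of an NS5A-targeting compound with a titration of the second compound of interest.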

Compound: O=C(c1cccc(-c2ccccc2)c1)N1CCC[C@H]1c1ncc(-c2ccc(-c3ccc(-c4cnc([C@@H]5CCCN5C(=O)c5cccc(-c6ccccc6)c5)[nH]4)cc3)cc2)[nH]1 [Compound S-128]
- Fold-Synergistic 1a (Q30E): >10 fold

Compound: Cc1nn(-c2ccccc2)nc1C(=O)N1CCC[C@H]1c1ncc(-c2ccc(-c3ccc(-c4cnc([C@@H]5CCCN5C(=O)c5nn(-c6ccccc6)nc5C)[nH]4)cc3)cc2)[nH]1 [Compound S-129]
- Fold-Synergistic 1a (Q30E): >100 fold

Compound: O=C(c1csc(-c2cccnc2)n1)N1CCC[C@H]1c1ncc(-c2ccc(-c3ccc(-c4cnc([C@@H]5CCCN5C(=O)c5csc(-c6cccnc6)n5)[nH]4)cc3)cc2)[nH]1 [Compound S-130]
- Fold-Synergistic 1a (Q30E): >10 fold

Compound: Cc1cc(C(=O)N2CCC[C@H]2c2ncc(-c3ccc(-c4ccc(-c5cnc([C@@H]6CCCN6C(=O)c6cc(C)nc(Cl)c6)[nH]5)cc4)cc3)[nH]2)cc(Cl)n1 [Compound S-131]
- Fold-Synergistic 1a (Q30E): >10 fold

Compound: Cc1nn(C)c2ncc(C(=O)N3CCC[C@H]3c3ncc(-c4ccc(-c5ccc(-c6cnc([C@@H]7CCCN7C(=O)c7cnc8c(c(C)nn8C)c7Cl)[nH]6)cc5)cc4)[nH]3)c(Cl)c12 [Compound S-132]
- Fold-Synergistic 1a (Q30E): <10 fold

Compound: O=C(c1cnccc1C(F)(F)F)N1CCC[C@H]1c1ncc(-c2ccc(-c3ccc(-c4cnc([C@@H]5CCCN5C(=O)c5cnccc5C(F)(F)F)[nH]4)cc3)cc2)[nH]1 [Compound S-134]
- Fold-Synergistic 1a (Q30E): <10 fold

Compound: O=C(c1cnc2n(c1=O)CCS2)N1CCC[C@H]1c1ncc(-c2ccc(-c3ccc(-c4cnc([C@@H]5CCCN5C(=O)c5cnc6n(c5=O)CCS6)[nH]4)cc3)cc2)[nH]1 [Compound S-135]
- Fold-Synergistic 1a (Q30E): <10 fold

Compound: O=C(c1ccc2ncsc2c1)N1CCC[C@H]1c1ncc(-c2ccc(-c3ccc(-c4cnc([C@@H]5CCCN5C(=O)c5ccc6ncsc6c5)[nH]4)cc3)cc2)[nH]1 [Compound S-136]
- Fold-Synergistic 1a (Q30E): <10 fold

Compound: O=C(c1ccc(-c2ccccc2)o1)N1CCC[C@H]1c1ncc(-c2ccc(-c3ccc(-c4cnc([C@@H]5CCCN5C(=O)c5ccc(-c6ccccc6)o5)[nH]4)cc3)cc2)[nH]1 [Compound S-137]
- Fold-Synergistic 1a (Q30E): >10 fold

Compound: O=C(c1csc(-c2ccccc2)n1)N1CCC[C@H]1c1ncc(-c2ccc(-c3ccc(-c4cnc([C@@H]5CCCN5C(=O)c5csc(-c6ccccc6)n5)[nH]4)cc3)cc2)[nH]1 [Compound S-138]
- Fold-Synergistic 1a (Q30E): >100 fold

Compound: O=C(c1cccc2c1OCC2)N1CCC[C@H]1c1ncc(-c2ccc(-c3ccc(-c4cnc([C@@H]5CCCN5C(=O)c5cccc6c5OCC6)[nH]4)cc3)cc2)[nH]1 [Compound S-139]
- Fold-Synergistic 1a (Q30E): >10 fold

Compound: O=C(c1ccc(C(F)(F)F)nc1)N1CCC[C@H]1c1ncc(-c2ccc(-c3ccc(-c4cnc([C@@H]5CCCN5C(=O)c5ccc(C(F)(F)F)nc5)[nH]4)cc3)cc2)[nH]1 [Compound S-140]
- Fold-Synergistic 1a (Q30E): >10 fold

Compound: O=C(c1nc2ccccc2s1)N1CCC[C@H]1c1ncc(-c2ccc(-c3ccc(-c4cnc([C@@H]5CCCN5C(=O)c5nc6ccccc6s5)[nH]4)cc3)cc2)[nH]1 [Compound S-141]
- Fold-Synergistic 1a (Q30E): >10 fold

Compound: Cn1cc(C(=O)N2CCC[C@H]2c2ncc(-c3ccc(-c4ccc(-c5cnc([C@@H]6CCCN6C(=O)c6cn(C)c7ccccc67)[nH]5)cc4)cc3)[nH]2)c2ccccc21 [Compound S-142]
- Fold-Synergistic 1a (Q30E): >10 fold

Compound: O=C(CC(c1ccccc1)c1ccccc1)N1CCC[C@H]1c1ncc(-c2ccc(-c3ccc(-c4cnc([C@@H]5CCCN5C(=O)CC(c5ccccc5)c5ccccc5)[nH]4)cc3)cc2)[nH]1 [Compound S-143]
- Fold-Synergistic 1a (Q30E): >10 fold

Compound: O=C(Cc1cccc2ccccc12)N1CCC[C@H]1c1ncc(-c2ccc(-c3ccc(-c4cnc([C@@H]5CCCN5C(=O)Cc5cccc6ccccc56)[nH]4)cc3)cc2)[nH]1 [Compound S-144]
- Fold-Synergistic 1a (Q30E): >10 fold

Compound: O=C(Cc1ccc2ccccc2c1)N1CCC[C@H]1c1ncc(-c2ccc(-c3ccc(-c4cnc([C@@H]5CCCN5C(=O)Cc5ccc6ccccc6c5)[nH]4)cc3)cc2)[nH]1 [Compound S-145]
- Fold-Synergistic 1a (Q30E): >10 fold

Compound: O=C(C(c1ccccc1)c1ccccc1)N1CCC[C@H]1c1ncc(-c2ccc(-c3ccc(-c4cnc([C@@H]5CCCN5C(=O)C(c5ccccc5)c5ccccc5)[nH]4)cc3)cc2)[nH]1 [Compound S-146]
- Fold-Synergistic 1a (Q30E): <10 fold

Compound: O=C(Cc1ccc(-c2ccccc2)cc1)N1CCC[C@H]1c1ncc(-c2ccc(-c3ccc(-c4cnc([C@@H]5CCCN5C(=O)Cc5ccc(-c6ccccc6)cc5)[nH]4)cc3)cc2)[nH]1 [Compound S-147]
- Fold-Synergistic 1a (Q30E): <10 fold

Compound: O=C(Cc1c[nH]c2ccccc12)N1CCC[C@H]1c1ncc(-c2ccc(-c3ccc(-c4cnc([C@@H]5CCCN5C(=O)Cc5c[nH]c6ccccc56)[nH]4)cc3)cc2)[nH]1 [Compound S-148]
- Fold-Synergistic 1a (Q30E): >10 fold

Compound: O=C(Cc1ccccn1)N1CCC[C@H]1c1ncc(-c2ccc(-c3ccc(-c4cnc([C@@H]5CCCN5C(=O)Cc5ccccn5)[nH]4)cc3)cc2)[nH]1 [Compound S-149]
- Fold-Synergistic 1a (Q30E): <10 fold

Compound: O=C(Cc1ccncc1)N1CCC[C@H]1c1ncc(-c2ccc(-c3ccc(-c4cnc([C@@H]5CCCN5C(=O)Cc5ccncc5)[nH]4)cc3)cc2)[nH]1 [Compound S-150]
- Fold-Synergistic 1a (Q30E): <10 fold

Compound: O=C(CCn1ccc2ccccc21)N1CCC[C@H]1c1ncc(-c2ccc(-c3ccc(-c4cnc([C@@H]5CCCN5C(=O)CCn5ccc6ccccc65)[nH]4)cc3)cc2)[nH]1 [Compound S-151]
- Fold-Synergistic 1a (Q30E): >10 fold

Compound: Cc1ccc(C2(C(=O)N3CCC[C@H]3c3ncc(-c4ccc(-c5ccc(-c6cnc([C@@H]7CCCN7C(=O)C7(c8ccc(C)cc8)CCCC7)[nH]6)cc5)cc4)[nH]3)CCCC2)cc1 [Compound S-152]
- Fold-Synergistic 1a (Q30E): <10 fold

Compound: Cc1cn(CCC(=O)N2CCC[C@H]2c2ncc(-c3ccc(-c4ccc(-c5cnc([C@@H]6CCCN6C(=O)CCn6cc(C)c7ccccc76)[nH]5)cc4)cc3)[nH]2)c2ccccc12 [Compound S-153]
- Fold-Synergistic 1a (Q30E): >10 fold

Compound: O=C(Cc1ccc(Oc2ccccc2)cc1)N1CCC[C@H]1c1ncc(-c2ccc(-c3ccc(-c4cnc([C@@H]5CCCN5C(=O)Cc5ccc(Oc6ccccc6)cc5)[nH]4)cc3)cc2)[nH]1 [Compound S-154]
- Fold-Synergistic 1a (Q30E): >10 fold

Compound: O=C(N1CCC[C@H]1c1ncc(-c2ccc(-c3ccc(-c4cnc([C@@H]5CCCN5C(=O)C5(c6ccccc6F)CCCC5)[nH]4)cc3)cc2)[nH]1)C1(c2ccccc2F)CCCC1 [Compound S-155]
- Fold-Synergistic 1a (Q30E): <10 fold

Compound: O=C(N1CCC[C@H]1c1ncc(-c2ccc(-c3ccc(-c4cnc([C@@H]5CCCN5C(=O)C5(c6ccc(F)cc6Cl)CCCC5)[nH]4)cc3)cc2)[nH]1)C1(c2ccc(F)cc2Cl)CCCC1 [Compound S-156]
- Fold-Synergistic 1a (Q30E): <10 fold

Compound: O=C(C1Cc2ccccc2O1)N1CCC[C@H]1c1ncc(-c2ccc(-c3ccc(-c4cnc([C@@H]5CCCN5C(=O)C5Cc6ccccc6O5)[nH]4)cc3)cc2)[nH]1 (some centres unmarked) [Compound S-157]
- Fold-Synergistic 1a (Q30E): >10 fold

Compound: COc1ccc(C2(C(=O)N3CCC[C@H]3c3ncc(-c4ccc(-c5ccc(-c6cnc([C@@H]7CCCN7C(=O)C7(c8ccc(OC)cc8)CCCC7)[nH]6)cc5)cc4)[nH]3)CCCC2)cc1 [Compound S-158]
- Fold-Synergistic 1a (Q30E): <10 fold

Compound: O=C(N1CCC[C@H]1c1ncc(-c2ccc(-c3ccc(-c4cnc([C@@H]5CCCN5C(=O)C5(c6ccccc6)CC5)[nH]4)cc3)cc2)[nH]1)C1(c2ccccc2)CC1 [Compound S-159]
- Fold-Synergistic 1a (Q30E): <10 fold

Compound: CC1(C(=O)N2CCC[C@H]2c2ncc(-c3ccc(-c4ccc(-c5cnc([C@@H]6CCCN6C(=O)C6(C)CC6)[nH]5)cc4)cc3)[nH]2)CC1 [Compound S-160]
- Fold-Synergistic 1a (Q30E): <10 fold

Compound: O=C(C1CCC1)N1CCC[C@H]1c1ncc(-c2ccc(-c3ccc(-c4cnc([C@@H]5CCCN5C(=O)C5CCC5)[nH]4)cc3)cc2)[nH]1 [Compound S-162]
- Fold-Synergistic 1a (Q30E): <10 fold

Compound: O=C(C1Cc2ccccc21)N1CCC[C@H]1c1ncc(-c2ccc(-c3ccc(-c4cnc([C@@H]5CCCN5C(=O)C5Cc6ccccc65)[nH]4)cc3)cc2)[nH]1 (some centres unmarked) [Compound S-163]
- Fold-Synergistic 1a (Q30E): <10 fold

Compound: O=C(C1CCCC1)N1CCC[C@H]1c1ncc(-c2ccc(-c3ccc(-c4cnc([C@@H]5CCCN5C(=O)C5CCCC5)[nH]4)cc3)cc2)[nH]1 [Compound S-164]
- Fold-Synergistic 1a (Q30E): <10 fold

Compound: O=C(CC1CCCC1)N1CCC[C@H]1c1ncc(-c2ccc(-c3ccc(-c4cnc([C@@H]5CCCN5C(=O)CC5CCCC5)[nH]4)cc3)cc2)[nH]1 [Compound S-165]
- Fold-Synergistic 1a (Q30E): >10 fold

Compound: O=C(CCC1CCCC1)N1CCC[C@H]1c1ncc(-c2ccc(-c3ccc(-c4cnc([C@@H]5CCCN5C(=O)CCC5CCCC5)[nH]4)cc3)cc2)[nH]1 [Compound S-166]
- Fold-Synergistic 1a (Q30E): >10 fold

Compound: O=C(C1CCCCC1)N1CCC[C@H]1c1ncc(-c2ccc(-c3ccc(-c4cnc([C@@H]5CCCN5C(=O)C5CCCCC5)[nH]4)cc3)cc2)[nH]1 [Compound S-167]
- Fold-Synergistic 1a (Q30E): <10 fold

Compound: O=C(CC1CCCCC1)N1CCC[C@H]1c1ncc(-c2ccc(-c3ccc(-c4cnc([C@@H]5CCCN5C(=O)CC5CCCCC5)[nH]4)cc3)cc2)[nH]1 [Compound S-168]
- Fold-Synergistic 1a (Q30E): >10 fold

Compound: CCC(C)C(=O)N1CCC[C@H]1c1ncc(-c2ccc(-c3ccc(-c4cnc([C@@H]5CCCN5C(=O)C(C)CC)[nH]4)cc3)cc2)[nH]1 (some centres unmarked) [Compound S-169]
- Fold-Synergistic 1a (Q30E): <10 fold

Compound: CCCC(C)C(=O)N1CCC[C@H]1c1ncc(-c2ccc(-c3ccc(-c4cnc([C@@H]5CCCN5C(=O)C(C)CCC)[nH]4)cc3)cc2)[nH]1 (some centres unmarked) [Compound S-170]
- Fold-Synergistic 1a (Q30E): <10 fold
